Several values for one entry are separate records, joined by “and”; a condition that tells them apart may be missing. Equal values may be shown once.
Experiments:
Aβ aggregates = details: reported probe; ref (8); cited from earlier work
[1] = biological target: Aβ plaques in brain slices (Homo sapiens, UniProt P05067); assay: In vitro brain slice fluorescence staining, co-staining with ThT; details: Tg mice slices, 13-month-old, female
Method: To confirm whether the probes could bind Aβ deposits in brain slices, the fluorescence staining experiment were performed using slices of Tg mice (13‐month‐old, female). The staining results were imaged using CLSM. To ensure the accuracy of the staining results, commercial fluorescent dye ThT was used to co‐stain the same sections. The fluorescence signals of the slices were acquired at the same position using different channels of the CLSM. As shown in Figure 4 and Figure S27–S29, Supporting Information, Aβ plaques were highlighted by the probes with a high signal‐to‐background ratio. In contrast, there was no fluorescence signal for wild‐type slices (Figures S30–S32, Supporting Information). Since Aβ plaques are abundantly produced in the hippocampal and cortical regions of the brain, we imaged the corresponding regions of the slices, respectively. The staining results with ThT (Figure 4a,b,i,j,q,r) are shown in green, and the staining results of the probes TPyrBDP (Figure 4c,d), TPipBDP (Figure 4k,l), and THAIBDP (Figure 4s,t) are shown in red. All three probes could stain Aβ plaques both in the hippocampal and cortical regions successfully, and the corresponding merged image further confirmed the staining results. To quantify the colocalization effect, the Pearson correlation coefficients (R‐value) were calculated using ImageJ software. The closer the R‐value is to 1, the better the colocalization of the probe and ThT.
(§1) In Vitro Brain Slice Fluorescence Staining
The paraffin-embedded blank sections (5 μm) were immersed in x ylene for 5 min for deparaffinization and then washed with ethanol for 2 min and water for 5 min. […]
Human blood (1 m L, provided b y China-J apan Friendly Hospital, Beijing, China) was first diluted with 2 m L of PBS solution; the sample was centrifugated for 10 min (8000 rpm) and washed with PBS 5 times to separate red blood cells from serum. […] The supernatant (100 μL) was transferred to 96-well plates, and its ultraviolet absorption (Ex = 490 nm) was evaluated. […]

Aβ1–42 aggregates [2] = biological target: T1, Aβ1–42 aggregates (Homo sapiens, UniProt P05067); assay: Fluorescence-based saturation binding assay; details: 10% EtOH/PBS, triplicate
T1 construct: purchased Shanghai Macklin Biochemical Technology Co., Ltd
T1 sequence (P05067 672-713 limits assumed): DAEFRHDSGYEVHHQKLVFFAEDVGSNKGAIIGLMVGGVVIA

Cytotoxicity MTT assay = assay type: cell-based; details: rat, PC12 cells, read-out: Cell viability
Method: The cells used for the cyt otox icit y t est were PC12, purchased from the Chinese National Infrastructure of Cell Line Resource. The experiment was divid ed into two parts, cell culture, and c yt otox icit y test. The PC12 cells were first cultured in cell culture fluid (high-glucose DMEM/heat-inactivated FBS/ heat-inactivated HS /penicillin and streptomycin = 100: 5: 5: 1, v/v) under 5% CO2 at 37 °C. After a period of incubation, PC12 were transferred into a sterile 96-well plate (1 × 10^4 cells per well) and cultured
for 24 h under 5% CO2 at 37 °C. After that, the cell culture fluid was removed, and gradient concentrations of probes (TP yrBDP, TPipBDP, THAIBDP), Aβ in the cell culture fluid (0, 2, 5, 10, 12, and 15 μM), or probes+ Aβ in th e cell culture fluid (5 μM probe + 10 μM Aβ) were added into the 96-well plate and incubat ed for another 24 h.
After that, the gradient concentration of probes or Aβ was removed and MTT (5× MTT was diluted into 1× MTT using dilution buffer, 50 μL per well) was added; t he mix ture was incubated at 37 °C for 4 h. The supernatant was removed, and form azan (150 μL per well) was added; the mix ture was placed on a shaker to be mix ed well. The cell viabilit y was determined by a microplate reader at 490 nm.

Hemolysis rate assay = assay type: cell-based; details: human, human red blood cells separated from whole blood, probe up to 100 µM, room temperature
Method: A cytotoxicity assay is one of the methods to evaluate the biocompatibility of probe molecules. Probes are generally considered to have low cytotoxicity when the cell viability is above 80%. Therefore, the cytotoxicity of TPyrBDP, TPipBDP, and THAIBDP was evaluated using PC12 cells using a standard MTT assay method. […] The hemolysis rate of probes is one of the common methods to evaluate the effect of probes on the blood of live animals. Therefore, the hemolysis rate of probes TPyrBDP, TPipBDP, and THAIBDP with blood samples was also evaluated. […] Therefore, the probes were suitable for subsequent cell experiments and animal experiments.
as §1
The paraffin-embedded blank sections (5 μm) were immersed in x ylene for 5 min for deparaffinization and then washed with ethanol for 2 min and water for 5 min. The brain slices were incubated with 40 μL of 10 mg/ m L ThT for 5 min and washed with 50% ethanol solution for 3 min. Next, the brain sl ices were incubated with 40 μL of 1 μM probes for 20 min. After absorbin g th e residual liquid with dust-free paper, th e antifluorescence attenuating agent was added dropwise, and neutral gum was used for mounting. The slices were then placed under a laser confocal microscope (Lecia SP5) […]
Hemolysis Rate (HR) Assay
Human blood (1 m L, provided b y China-J apan Friendly Hospital, Beijing, China) was first diluted with 2 m L of PBS solution; the sample was centrifugated for 10 min (8000 rpm) and washed with PBS 5 times to separate red blood cells from serum. Finall y, the red blood cells were dispersed in 10 m L of P BS solution, from which 0.2 m L was taken, and 0.8 m L of different reagents (P BS, DI water, and 10, 20, 30, 50, and 100 μM of probes) was added. After mix ing evenl y, the samples were allowed to stand still for 3 h at room temperature and centrifuged (12,000 rpm, 5 min) to determine hemolysis circumstances. The supernatant (100 μL) was transferred to 96-well plates, and its ultraviolet absorption (Ex = 490 nm) was evaluated. […]

Aβ1–42 aggregates [3] = biological target: T1, Aβ1–42 aggregates; assay: In vitro Aβ42 aggregate staining in solution (CLSM); assay type: binding; details: probe 5 µM, ThT 10 µM
Method: In Vitro Aβ42 staining in solution
Aβ42 aggregates were prepared according to the literature reported method 2. Aβ42
aggregate solution (20 μL) was added dropwise to a slide (CITOTEST), and then spread
until dry. ThT (10 μM, 20 μL) was added dropwise and spread until it was dry. Prob es
were added dropwise and spread until dr y. Anti-fluorescence quenchin g reagent (10-20
μL) was added dropwise and covered with a cover slide. The fluorescence signal was
captured b y C LSM. λex (ThT) = 488 nm, λem (ThT) = 508-550 nm; λex (probe) = 633 nm,

Aβ1–42 aggregates [4] = biological target: T1, Aβ1–42 aggregates; assay: Fluorescence enhancement assay with Aβ aggregates; assay type: binding; details: for Em, with Aβ / Em shift, with Aβ: 10% ethanol/PBS; for Em shift, with Aβ: + red shift, − blue shift; for Fluorescence enhancement (Fold = FL intensity probe+Aβ / probe): probe 1 μM in 10% EtOH/PBS, Aβ aggregates 33 µg mL−1
Text: Thioflavin‐T (ThT) is the gold standard probe, commonly used as an in vitro fluorescence stain to determine the existence of Aβ aggregates. The ThT probe has a typical D–A structure, and its HOMO and LUMO electron clouds are redistributed from the donor (HOMO) to the acceptor (LUMO), which is typical for ICT probes.^[ [46] ^] In addition, the single bond between the benzene ring in the ThT probe and the benzothiazole salt, and the N,N‐dimethylamino group attached to the benzene ring can rotate freely, resulting in ThT becoming a molecular rotor. After ThT binds to Aβ, the rotation of the molecular rotor is restricted, and most of the electrons in the excited state return to the ground state by radiative transition, resulting in a substantial increase in fluorescence. […] The fluorescence response of TPyrBDP, TPipBDP, and THAIBDP with Aβ1–42 aggregates and BSA was evaluated in PBS (10% ethanol) solution. The formation of Aβ1–42 aggregates was characterized by TEM. The morphology of Aβ1–42 aggregates was filamentous (Figure S25b, Supporting Information), while the morphology of Aβ1–42 oligomers was a point‐like structure with a minimum diameter 44 nm (Figure S25a, Supporting Information). The images confirmed that Aβ1–42 aggregates were prepared successfully. As shown in Figure 2c‐f and Table S1, Supporting Information, a 42.5‐fold enhancement of fluorescence was observed when TPyrBDP interacted with the Aβ1–42 aggregates. […] The results confirmed the calculation results in Figure 1. […] In Figure 1b, the three probes are inserted into the hydrophobic pocket of Aβ1–42 aggregates when they interact with Aβ1–42 aggregates, resulting in changes of λ em. The fluorescence response of BSA with probes may cause non‐specific fluorescence enhancement, thus generating false signals. Therefore, we evaluated the interaction between the three probes and BSA. […] The selectivity of TPyrBDP, TPipBDP, and THAIBDP to different ions and amino acids was also evaluated. […] The ions and amino acids had no influence on the fluorescence enhancement of the probes. To quantify the binding affinity (K d) of the probes to Aβ1–42 aggregates, fluorescence‐based saturation binding assays were conducted using Aβ1–42 aggregates. The lower the K d values, the better the affinities.
To a solution of HFIP (600 μL) was added hum an Aβ42 (1 mg). After that, the solution was ultrasonicall y t reated for 2 min to destroy the oligomer probabl y formed, followed b y placing the mixture into an ice bath for 2 h. The solution was dispensed 20 μL per cent rifuge tube, dried by nitro gen, and stored at −80 °C.
To a centrifuge tube (containing 33 μg of Aβ42) was added 540 μL of PBS and 1% hydrox yl amine solution (60 μL); the solution was s haken on a shaker (300 rpm) at 37 °C for 72-96 h to form the Aβ42 aggregates. The Aβ42 aggregates were characterized by transmission electron microscop y (TEM).
Fluorescence Enhancement Assay
To a solution of probes were added pretreated Aβ42 aggregates (33 μg) or bovine serum albumin (BSA). The mix ture (the final concentration of probes was 1μM in 10% EtOH/PBS) was immediatel y transferred to a fluorescence spectrophot ometer (U-3900H, HITACHI, J apan) to record their spectrum (Ex slit = 10 nm, Em slit = 20 nm).
The probes alone (1μM in 10% EtOH/PBS), PBS, and BSA were also tested under the same conditions. The fluorescence enhancem ent was calculated usin g the followin g formula: fold = the fluorescence intensit y of the probe with Aβ42 or BSA/the fluorescence intensit y of probe alone. […]
(1 picture or pasted object on this page, not shown here)

[5] = system: Aβ1–42 aggregates in PC12 cells; assay: Cell imaging of Aβ1–42 aggregates, co-staining with ThT; assay type: cell-based
Text: PC12 cells were used to study the affinity between TPipBDP and Aβ1–42 aggregates. Aβ1–42 aggregates have great neurotoxicity to interfere with the normal function of the brain. […] To study the imaging of TPipBDP with Aβ1–42 aggregates, the imaging effect of TPipBDP with Aβ1–42 aggregates was studied in PC12 cells. […] After adding Aβ1–42 aggregates to PC12 cells, some smaller‐than‐cell green fluorescence (ThT) and red fluorescence (TPipBDP) spots were observed. These smaller‐than‐cell bright fluorescence spots were Aβ1–42 aggregates. The Aβ1–42 aggregates can be clearly observed in the bright field image. […]
After that, the gradient concentration of probes or Aβ was removed and MTT (5× MTT was diluted into 1× MTT using dilution buffer, 50 μL per well) was added; t he mix ture was incubated at 37 °C for 4 h. […] The cell viabilit y was determined by a microplate reader at 490 nm.
To a centrifuge tub e (containing 1 mg of Aβ42) was added 180 μL of DMSO and 720 μL of PBS (pH = 7.2-7.4, Hyclone) and 1% hydrox ylamine solution (100 μL); the solution was shaken on a shaker (300 rpm) at 37 °C for 7 da ys to form the Aβ42 aggregates. Initial peptide concentrations were determined spectrophotometricall y at 280 nm, using an extinction coefficient of 1280 M-1cm-1. […]

Aβ plaques in brain slices, sequence (P05067 672-711 limits assumed): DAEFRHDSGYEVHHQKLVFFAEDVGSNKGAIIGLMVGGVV

Row | Compound | Kd (Aβ aggregates) [nM] | Pearson correlation coefficient (R-value) with ThT, hippocampus region [1] | Kd (Aβ1–42 aggregates [2]) [nM] | viability at 24 h (Cytotoxicity MTT assay) [%] | hemolysis at 3 h (Hemolysis rate assay) [%] | Staining of Aβ1–42 aggregates in solution (Aβ1–42 aggregates [3]) | Em, with Aβ (Aβ1–42 aggregates [4]) [nm] | Em shift, with Aβ (Aβ1–42 aggregates [4]) | λem blueshift after interacting with Aβ1–42 aggregates (Aβ1–42 aggregates [4]; PBS (10% ethanol)) | Fluorescence enhancement (Fold = FL intensity probe+Aβ / probe) (Aβ1–42 aggregates [4]) | R-value (colocalization with ThT), probe + Aβ group ([5]; PC12 cells with Aβ1–42 aggregates (10 µM)) | R-value (colocalization with ThT), control group ([5]; PC12 cells without Aβ) | Pearson correlation coefficient (R-value) with ThT, cortex region [1] | λem redshift after interacting with Aβ1–42 aggregates (Aβ1–42 aggregates [4]; PBS (10% ethanol))
1 | Cc1cc(/C=C/c2ccc(N(C)C)cc2)n2c1C=C1C=CC=[N+]1[B-]2(F)F [BAP-1] | 44.1 | – | – | – | – | – | – | – | – | – | – | – | – | –
2 | CC1=CC(C)=[N+]2C1=Cc1c(C)cc(/C=C/c3ccc(N4CCCCCC4)s3)n1[B-]2(F)F [THAIBDP] | – | 0.72 | 28.2 ± 3.07 | > 80 | < 5 | stained Aβ1–42 aggregates successfully | 701 | -22 nm | ≈ 22 nm | 27.23 fold and 27.2 fold | – | – | – | –
3 | CC1=CC(C)=[N+]2C1=Cc1c(C)cc(/C=C/c3ccc(N4CCCCC4)s3)n1[B-]2(F)F [TPipBDP] | – | – | 28.3 ± 5.94 | > 80 | < 5 | – | 692 | -27 nm | ≈ 27 nm | 75.54 fold and 75.5 fold | 0.84 | 0.65 | – | –
4 | CC1=CC(C)=[N+]2C1=Cc1c(C)cc(/C=C/c3ccc(N4CCCC4)s3)n1[B-]2(F)F [TPyrBDP] | – | 0.87 | 54.2 ± 5.82 | > 80 | < 5 | stained Aβ1–42 aggregates successfully | 693 | +13 nm | – | 42.48 fold and 42.5 fold | – | – | 0.85 | ≈ 13 nm
